One experiment has as its target T1, ORAI1 (Homo sapiens, UniProt Q96D31).
T1 construct: host or cells: Jurkat T-lymphocytes (electroporation)
The experiment is described as follows: Live cell Ca2+ imaging of G-GECO1.2-ORAI1 transfected Jurkat T cells. In kind it is cell-based. The note with it: 10 μM. The procedure:
12.5 ∗ 10^6 Jurkat T–lymphocytes were pelleted at 400 to 450 ×g for 5 min at room temperature and pellets were dissolved in 500 μl RPMI 1640 medium (Gibco) without phenol red containing L-glutamine, supplemented with 7.5% (v/v) NCS. 30 μg plasmid-DNA (G-GECO1.2-ORAI1) was transferred into a 4 mm electroporation cuvette (Biozym, Austria) and the Jurkat T-lymphocytes were added. G-GECO1.2-ORAI1 was a gift from Michael Cahalan, USA (Addgene plasmid # 73562). After an incubation of 5 min at 37 °C, cells were electroporated with 960 μF and 240 V (τ: […]). […]
17 to 22 h after electroporation, 5 ∗ 10^4 cells were pelleted at 400–450 ×g for 5 min at room temperature and cell pellets were dissolved in 50 μl nominal Ca^2+ free buffer. […] The fluorophore was excited at 488 nm every 2 s for 30 min and fluorescence was measured at 520 nm using Volocity (Version 6.3, Perkin Elmer).
Using ImageJ (Version 1.51 k, National Institutes of Health, USA) the pictures were analyzed for mean fluorescence in the outer ring of Jurkat T-lymphocytes employing ring-shaped regions of interest (ROIs). […] The mean background fluorescence values were subtracted from the signal in every image. For quantitative analysis, fluorescence intensities were normalized to the first fluorescence intensity (F/F0).

Experiment [1] has as its system SOCE in primary human CD4+ T cells. The experiment is described as follows: SOCE inhibition, Ca2+ free/Ca2+ re-addition protocol in primary human CD4+ T cells. Format: cell-based. How it is done: Buffy coats were obtained from the blood bank of the University Medical Center Hamburg-Eppendorf (UKE) and peripheral blood mononuclear cells (PBMCs) were isolated by Biocoll density gradient centrifugation (Merck). Human CD4^+ T cells were isolated from PBMCs by negative selection using the EasySep Human CD4^+ T Cell Enrichment Kit (Stemcell Technologies) according to the manufacturer's protocol. The purity of the isolated cells was assessed by flow cytometry.
Jurkat T-lymphocytes, primary human CD4^+ T cells and H1299 cells were pelleted at 450 ×g for 5 min, rat TMBP at 300 ×g for 8 min at room temperature and were resuspended in 1 ml of either standard JMP medium (Jurkat, H1299 and human CD4^+ T cells) or standard DMEM based medium containing 10% fetal bovine serum (FBS) (v/v) (TMBP cells). Resting TMBP cells (day 5–7 after re-stimulation) after the second to fifth re-stimulation were thawed from liquid nitrogen 12 to 40 h prior to Fura2-loading. After pre-incubation for 5 min at 37 °C, cells were incubated with 4 μM Fura2-AM for 15 min at 37 °C. After addition of the dye, cells were kept in the dark. Afterwards, cells and the dye were diluted by addition of 4 ml standard medium and incubated for another 15 min. Cells were washed twice in Ca^2+ buffer (140 mM NaCl, 5 mM KCl, 1 mM MgSO4, 1 mM CaCl2, 1 mM NaH2PO4, 20 mM HEPES, 5.5 mM glucose; pH 7.4 (NaOH), sterile filtered) and were diluted to a concentration of 2*10^6 cells/ml. Subsequently, cells were kept at room temperature for 20 min for de-esterification before the start of the first measurement.
10^6 Jurkat T-lymphocytes, H1299 cells, TMBP cells or 4*10^6 primary human CD4^+ T cells were added into a 10 × 10 mm quartz glass cuvette (Hellma Analytics, Germany) that was placed into a fluorescence spectrophotometer (F-2710, Hitachi, Japan). […] Fluorescence intensity was measured at an emission wavelength of 495 ± 5 nm for both excitation wavelengths.

T1 sequence (Q96D31 whole entry): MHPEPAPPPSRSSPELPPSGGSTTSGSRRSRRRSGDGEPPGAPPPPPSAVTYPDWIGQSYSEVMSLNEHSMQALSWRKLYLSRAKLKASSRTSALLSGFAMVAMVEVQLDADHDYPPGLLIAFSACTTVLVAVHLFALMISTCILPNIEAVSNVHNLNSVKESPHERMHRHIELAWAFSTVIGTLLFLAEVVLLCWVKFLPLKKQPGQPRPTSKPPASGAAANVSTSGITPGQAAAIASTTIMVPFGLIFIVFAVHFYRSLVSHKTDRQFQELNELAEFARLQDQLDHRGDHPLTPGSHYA

Take `CCc1cc2c(cc1OS(N)(=O)=O)CC[C@@H]1[C@@H]2CC[C@]2(C)[C@@H](CC#N)CC[C@@H]12` [STX564, 2-ethyl-3-sulfamoyloxy-17β-cyanomethylestra-1,3,5(10)-triene]: the “SOCE by ORAI1 (G-GECO1.2-ORAI1 fluorescence)” value on ORAI1 is given as “almost completely diminished”. In experiment [1] (10 μM), the “Ca2+ release upon drug addition in absence of extracellular Ca2+” value is “Ca^2+ release was observed directly upon drug addition” and the “steady-state plateau phase of Ca2+ entry” value is on record as “re-reached after a few min”. Moreover, the “initial Ca2+ peak after Ca2+ re-addition and Ca2+ entry at later stages” value in experiment [1] (1 and 2 μM) is reported as “efficiently inhibited”.
